Results from publication PMC11679793, “Structure-Activity Relationship Study of Majusculamide D: Overcoming Metabolic Instability and Severe Toxicity with a Fluoro Analogue” (Marine Drugs, 2024).

Columns and labels:
[1] = Preliminary water solubility test; type: physicochemical; settings: 25 °C, ultrasonic treatment 30 min, visual
[2] = Serum biochemical analysis and H&E histology of liver and kidney; type: in vivo, mice; settings: 5 mg/kg every other day, 14 days
Procedure: In the biochemical and histological assays, 1n (5 mg/kg) and 1a (5 mg/kg) were administered to mice every other day, with the control group receiving an equivalent dose of saline. Following 14 days, mouse serum was collected for biochemical analysis, and organs were fixed for histological examination. […] In comparison, the liver tissues of the 1n-treated and control groups were normal.
Mice were euthanized, and liver and kidney tissues were collected and fixed in 10% neutral-buffered formalin for 48 h. The fixed tissues were processed for paraffin embedding, including dehydration in a graded ethanol series, clearing with xylene, and infiltration with molten paraffin wax. Paraffin blocks were sectioned into 4 μm slices using a rotary microtome, and the sections were mounted onto glass slides. The slides were dried at 60 °C for 4 h to ensure proper tissue adhesion. Following deparaffinization and rehydration, staining was performed according to the manufacturer’s instructions for the H&E staining kit (Solarbio, China). The sections were immersed in a hematoxylin solution for 3 min to stain the nuclei and then rinsed under running tap water for 1 minute to remove excess stain. Differentiation was achieved by briefly immersing the slides in a 1% hydrochloric acid-ethanol solution, followed by neutralization in 0.6% ammonia water until the nuclei appeared blue. Eosin staining was applied for 30 s to stain cytoplasmic and extracellular components, imparting a pink coloration. The slides were rinsed under running tap water for 30 s to remove excess eosin. Finally, the sections were dehydrated through a graded ethanol series, cleared with xylene, and coverslipped with a neutral resin mounting medium to preserve the stained tissues for microscopic examination.

[3] = system: pancreatic cancer cells; assay: EdU assay; type: cell-based; settings: 48 h treatment, concentration-dependent, vs control
Source text: The EdU ([…]) assay is a well-established method that assesses cell proliferation activity by detecting DNA synthesis. The results of EdU assays indicated […]
concentration-dependent manner. […]
the DNA synthesis of pancreatic cancer cells, thereby inhibiting the proliferation of pancreatic cancer cells, which was consistent with the results of clone formation assays. […]
Snail and TCF8/ZEB1 both […]
are transcription factors that can inhibit the expression of E-cadherin and promote the EMT process. Vimentin is a marker protein of mesenchymal cells, and its expression increases during EMT, further contribute to the process of metastasis by supporting the structural changes needed for cell migration and invasion.
We examined the effects of compound 1a on above key proteins involved in tumor progression pathways employing Western blot analysis in PANC-1 cells and MIA PaCa-2 […]
1a might inhibit cancer cell invasion and migration by enhancing cell-cell adhesion and barrier function. Conversely, the expression levels of β-catenin, Fibronectin, Snail, […]
Cells were resuspended at a concentration of 300 cells/mL, and 2 mL of the suspension was added to each well of a 6-well plate. […] The colonies were imaged under a microscope and quantified using ImageJ. […]

With `CCCCC(C)CC(C)C(=O)N(C)C(Cc1ccc(OC)cc1)C(=O)NC(C(=O)N(C)C(C(=O)N1CC(O)CC1C(=O)N1C(=O)C=CC1C)C(C)C)C(C)OC(C)=O` (centres unmarked) [Compound 1a, Majusculamide D] the “Solubility (mg/mL)” value [1] was “Insoluble”, the “kidney tissue H&E histology” value [2] was “no significant pathological differences” and the “liver tissue H&E histology” value [2] was “signs of hepatocyte necrosis and disruption of the hepatic cord structure”. The “serum ALT and AST levels compared to the control group” value ([2]; n = 3) was “substantially elevated” and the “cell proliferation ability (EdU, DNA synthesis)” value [3] was “decreased in comparison to the control group”.
